Read-outs that look alike come from different tables or passages of the source.
Key:
MMP-1 = biological target: T1, MMP-1 (Homo sapiens, UniProt P03956); assay: MMP-1 inhibition (thiopeptide or fluorescent peptide substrate); settings: for inhibition at 10 µM: read-out: MMP1
T1 sequence (P03956 100-469): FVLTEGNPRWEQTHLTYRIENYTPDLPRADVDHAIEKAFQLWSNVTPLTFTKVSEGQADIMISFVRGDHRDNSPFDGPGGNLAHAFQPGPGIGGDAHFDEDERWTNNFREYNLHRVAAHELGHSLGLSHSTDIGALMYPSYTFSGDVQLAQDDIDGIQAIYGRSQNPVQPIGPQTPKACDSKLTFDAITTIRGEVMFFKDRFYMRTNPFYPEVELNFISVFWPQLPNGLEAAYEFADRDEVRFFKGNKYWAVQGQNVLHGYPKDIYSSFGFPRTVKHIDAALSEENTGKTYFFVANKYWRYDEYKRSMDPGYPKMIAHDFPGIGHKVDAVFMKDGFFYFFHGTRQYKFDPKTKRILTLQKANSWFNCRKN

[1] = biological target: TNF-α converting enzyme (TACE) (Homo sapiens, UniProt P78536); assay: Test procedure for measuring TACE inhibition (fluorescent peptidyl substrate); format: biochemical
Chain of TNF-α converting enzyme (TACE) (P78536 215-824): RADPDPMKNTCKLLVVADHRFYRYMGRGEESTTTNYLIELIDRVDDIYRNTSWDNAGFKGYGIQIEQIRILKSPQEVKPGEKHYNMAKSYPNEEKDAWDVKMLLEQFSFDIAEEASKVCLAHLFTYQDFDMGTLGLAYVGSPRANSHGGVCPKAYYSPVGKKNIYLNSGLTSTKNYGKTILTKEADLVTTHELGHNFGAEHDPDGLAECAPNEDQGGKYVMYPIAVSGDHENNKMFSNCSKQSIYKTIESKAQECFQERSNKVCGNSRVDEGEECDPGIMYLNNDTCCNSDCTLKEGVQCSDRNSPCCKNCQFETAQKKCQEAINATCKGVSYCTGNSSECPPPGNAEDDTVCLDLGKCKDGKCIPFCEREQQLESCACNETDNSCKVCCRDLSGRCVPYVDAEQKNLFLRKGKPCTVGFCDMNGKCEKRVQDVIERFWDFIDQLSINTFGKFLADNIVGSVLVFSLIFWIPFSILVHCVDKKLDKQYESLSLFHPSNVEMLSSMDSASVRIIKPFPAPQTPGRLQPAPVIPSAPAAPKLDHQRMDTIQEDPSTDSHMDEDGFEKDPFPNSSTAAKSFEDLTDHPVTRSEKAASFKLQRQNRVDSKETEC

MMP-13 = MMP-13 (Homo sapiens, UniProt P45452); assay: MMP-13 inhibition (thiopeptide or fluorescent peptide substrate); format: biochemical; settings: read-out: MMP13; for inhibition at 10 µM: % @ 10µM per footnote a
Excerpt: Alternatively, a fluorescent peptide substrate is used.

THP-1 cells = assay: Human monocytic THP-1 cell differentiation assay for soluble proteins (THP soluble protein assay), LPS-stimulated, TNF-α ELISA; format: cell-based; settings: for THP (% inhibition): Table 1, concentration not given
Excerpt: Mitogenic stimulation of THP-1 cells cause differentiation into macrophage like cells with concomitant secretion of tumor necrosis factor (TNF-a) and TNF receptor (TNF-R p75/80 and TNF-R p55/60) and Interleukin-8 (IL-8), among other proteins. In addition, non-stimulated THP-1 cells shed both the p75/80 and the p55/60 receptors over time. The release of membrane bound TNF-a and possibly TNF-R p75/80 and TNF-R p55/60, but not IL-8, is mediated by an enzyme called TNF-α converting enzyme or TACE.
THP-1 cells (from ATCC) are a human monocytic cell line which were obtained from the peripheral blood of a person with acute monocytic leukemia. They can be grown in culture and differentiated into macrophage like cells by stimulation with mitogens.
Each vial of cells are cultured for about two weeks prior to being used for an assay and then are used for only 4 to 6 weeks to screen compounds.
Cell exposure to DMSO was limited to 0.1 % final concentration. […] Compounds can be evaluated for their effect on basal (non-stimulated) shedding of the receptors by replacing the LPS with […] of THP-1 media. Plates are placed into an incubator set at 5% CO2 and at 37°C. After 4 hours of incubation, […] of tissue culture supernatant (TCS) is removed for use in an TNF-α ELISA. Following 24 hours of incubation, […] of TCS is removed and used for analysis in TNF-R p75/80, TNF-R p55/60 and IL-8 ELISAs.
In addition, at the 24 hours timepoint, and the cells for each treatment group are collected by resuspension in 500 µl/well of THP-1 media and transferred into a FACS tube. […] The samples are run on a Becton Dickinson FaxCaliber FLOW cytometry machine and the amount of dye taken up by each cell is measured in the high red wavelength (FL3). Only cells with compromised membranes (dead or dying) can take up PI. The percent of live cells is calculated by the number of cells not stained with PI, divided by the total number of cells in the sample. The viability values calculated for the drug treated groups were compared to the viability value calculated for the vehicle treated mitogen stimulated group ("vehicle positive control") to determine the "percent change from control". This "percent change from control" value is an indicator of drug toxicity.
The quantity of soluble TNF-α, TNF-R p75/80 and TNF-R p55/60 and IL-8 in the TCS of the THP-1 cell cultures are obtained with commercially available ELISAs from R&D Systems, by extrapolation from a standard curve generated with kit standards. The number of cells that either take up or exclude PI are measured by the FLOW cytometry machine and visualized by histograms using commercially available Cytologic software for each treatment group including all controls.
Biological variability in the magnitude of the response of THP-1 cell cultures requires that experiments be compared on the basis of percent change from "vehicle positive control" for each drug concentration. Percent change in each soluble protein evaluated from the "vehicle positive control" was calculated for each compound concentration with the following formula: % Change =(pg/ml (compound) - pg/ml (veh pos control))/(pg/ml (veh pos control) - pg/ml (veh neg control))x 100 [formula]
For the soluble protein (TNF-a, p75/80, p55/60, IL-8) studies under stimulated conditions, the mean pg/ml of duplicate wells were determined and the results expressed as percent change from "vehicle positive control". For the soluble protein (p75/80 and p55/60 receptors) studies under non-stimulated conditions, the mean pg/ml of duplicate wells were determined and the results expressed as percent change from […] utilizing the following formula: % Change =(pg/ml (compound neg control) - pg/ml (veh neg control))/(pg/ml (veh neg control))X 100 [formula]
IC50 values for each compound are calculated by non-linear regression analysis using customized software utilizing the JUMP statistical package.

[2] = second table, IC50 (nM) per footnote a

IC50 (MMP-1) [nM] | IC50 ([1]; Table 1) [nM] | Molecule | further results
3300 | 20.5 | CC#CCOc1ccc([S+]([O-])C(CCCCNC(=O)c2ccc3ccccc3n2)C(=O)NO)cc1 (mixture of isomers) [Example 23, Quinoline-2-carboxylic acid [5-(4-but-2-ynyloxy-benzenesulfinyl)-5-hydroxycarbamoyl-pentyl]-amide] | 
10000 | 30 | CC#CCOc1ccc(OCCC(=O)NO)cc1 [Example 9, 3-(4-But-2-ynyloxy-phenoxy)-N-hydroxy-propionamide] | THP (% inhibition) (THP-1 cells): 16%
10000 |  | CC#CCOc1ccc(CCCC(=O)NO)cc1 [Example 12, 4-(4-But-2-ynyloxy-phenyl)-N-hydroxy-butyramide] | 
3300 | 20.1 | CC#CCOc1ccc([S+]([O-])C(CCCCNC(=O)C(c2ccccc2)c2ccccc2)C(=O)NO)cc1 (stereo not drawn) [Example 30, 2-(4-But-2-ynyloxy-benzenesulfinyl)-6-diphenylacetylamino-hexanoic acid hydroxyamide] | 
4600 | 20.1 | CC#CCOc1ccc([S+]([O-])C(CCCCNC(=O)CNC(=O)CCCc2cccs2)C(=O)NO)cc1 (stereo not drawn) [Example 58] | 
3400 | 22.6 | CC#CCOc1ccc([S+]([O-])C(CCCCNC(=O)CNC(=O)C2c3ccccc3Oc3ccccc32)C(=O)NO)cc1 (stereo not drawn) [Example 59] | 
5600 | 22.5 | CC#CCOc1ccc([S+]([O-])C(CCCCNC(=O)CNC(=O)c2cccn2C)C(=O)NO)cc1 (stereo not drawn) [Example 61, 1-Methyl-1H-pyrrole-2-carboxylic acid {[5-(4-but-2-ynyloxy-benzenesulfinyl)-5-hydroxycarbamoylpentyl-carbamoyl]-methyl}-amide] | 
 | 42 | CC#CCOc1ccc(S(=O)(=O)C(CCCCNC(=O)CNC(=O)c2ccccc2CCc2ccccc2)C(=O)NO)cc1 (stereo not drawn) [Example 64, N-{[5-(4-But-2-ynyloxy-benzenesulfonyl)-5-hydroxycarbamoyl-pentylcarbamoyl]-methyl}-2-phenethyl-benzamide] | 
 | 29.2 | CC#CCOc1ccc(S(=O)(=O)C(CCCCNC(=O)CNC(=O)Cc2csc3ccccc23)C(=O)NO)cc1 (stereo not drawn) [Example 69] | 
 | 147 | N-[5-(4-But-2-ynyloxy-benzenesulfonyl)-5-hydroxycarbamoyl-pentyl]-2-phenethyl-benzamide [Example 34] | 

Second part, the molecule before the results:

Molecule | IC50 (MMP-1) [nM] | IC50 ([1]; Table 1) [nM] | further results
CC#CCOc1ccc([S+]([O-])[C@@H](C(=O)NO)c2ccc(Br)cc2)cc1 (single isomer, unassigned) [Example 87] |  |  | inhibition at 10 µM (MMP-1): 17%; inhibition at 1 µM (MMP-13; % at 1 um (specified in cell)): 33%; IC50 [1, 2]: 336 nM
CC#CCOc1ccc(SC(C)C(=O)NO)cc1 (stereo not drawn) [Example 4, 2-(4-But-2-ynyloxy-phenylsulfanyl)-N-hydroxy-propionamide] |  | 47.2 | THP (% inhibition) (THP-1 cells): 2%
CC#CCOc1ccc(S(=O)(=O)C(CCCCCC)C(=O)NO)cc1 (stereo not drawn) [Example 5, 2-(4-But-2-ynyloxy-benzenesulfonyl)-octanoic acid hydroxamide] |  |  | IC50 (MMP-1; read-out: MMP1 IC50, Table 1): 10000 nM; THP (% inhibition) (THP-1 cells): 6%
CC#CCOc1ccc(OCC(=O)NO)cc1 [Example 11, 2-(4-But-2-ynyloxy-phenoxy)-N-hydroxy-acetamide] | 10000 |  | 
CC#CCOc1ccc([S+]([O-])C(CCCCNC(=O)C2c3ccccc3Oc3ccccc32)C(=O)NO)cc1 (stereo not drawn) [Example 29, 9H-Xanthene-9-carboxylic acid [5-(4-but-2-ynyloxy-benzenesulfinyl)-5-hydroxycarbamoyl-pentyl]-amide] | 2000 | 18.9 | 
CC#CCOc1ccc([S+]([O-])C(CCCCNC(=O)CNC(=O)c2cnc3ccccc3c2)C(=O)NO)cc1 (stereo not drawn) [Example 53] | 4000 | 15.2 | 
CC#CCOc1ccc([S+]([O-])C(CCCCNC(=O)CNC(=O)c2ccccc2CCc2ccccc2)C(=O)NO)cc1 (stereo not drawn) [Example 56] | 3900 | 21.9 | 
CC#CCOc1ccc([S+]([O-])C(CCCCNC(=O)CNC(=O)Cc2ccc(Cl)c(Cl)c2)C(=O)NO)cc1 (stereo not drawn) [Example 57] | 4600 | 24.4 | 
CC#CCOc1ccc(S(=O)(=O)C(CCCCNC(=O)CNC(=O)CN2C(=O)c3ccccc3C2=O)C(=O)NO)cc1 (stereo not drawn) [Example 63, 2-(4-But-2-ynyloxy-benzenesulfonyl)-6-{2-[2-(1,3-dioxo-1,3-dihydro-isoindol-2-yl)-acetyl-amino]-acetylamino}-hexanoic acid hydroxyamide] |  | 16.1 | 
CC#CCOc1ccc(S(=O)(=O)C(CCCCNC(=O)CNC(=O)C2c3ccccc3Oc3ccccc32)C(=O)NO)cc1 (stereo not drawn) [Example 67, 9H-Xanthene-9-carboxylic acid {[5-(4-but-2-ynyloxy-benzenesulfonyl)-5-hydroxycarbamoyl-pentylcarbamoyl]-methyl}-amide] |  | 34.8 | 
CC#CCOc1ccc(S(=O)(=O)C(CCCCNC(=O)CNC(=O)c2nccc3ccccc23)C(=O)NO)cc1 (stereo not drawn) [Example 68, Isoquinoline-1-carboxylic acid {[5-(4-but-2-ynyloxy-benzenesulfonyl)-5-hydroxycarbamoyl-pentylcarbamoyl]-methyl}-amide] |  | 21.2 | 
CC#CCOc1ccc(S(=O)(=O)C(CCCCNC(=O)CNC(=O)Cc2c[nH]c3ccccc23)C(=O)NO)cc1 (stereo not drawn) [Example 70, 2-(4-But-2-ynyloxy-benzenesulfonyl)-6-[2-(2-1H-indol-3-yl-acetylamino)-acetylamino]-hexanoic acid hydroxyamide] |  | 88.1 | 
CC#CCOc1ccc(SC(C(=O)NO)C2CCCCC2)cc1 (stereo not drawn) [Example 73, 2-{[4-(2-butynyloxy)phenyl]sulfanyl}-2-cyclohexyl-N-hydroxyacetamide] |  |  | inhibition at 10 µM (MMP-1): 4.8%; inhibition at 3 µM (THP-1 cells; Homo sapiens, THP-1; at 3 uM; percent change from vehicle positive control; read-out: TNFalpha at 3 uM) THP (percent change)): 0%
CC#CCOc1ccc(SC(C(=O)NO)c2ccc(OCC)cc2)cc1 (stereo not drawn) [Example 100, 2-{[4-(2-butynyloxy)phenyl]sulfanyl}-N-hydroxy-2-(4-ethoxyphenyl) acetamide] |  |  | inhibition at 10 µM (MMP-1): 2%; inhibition at 10 µM (MMP-13): 15%; IC50 [1, 2]: 100 nM
CC#CCOc1ccc([S+]([O-])C(C(=O)NO)c2ccc(OCC)cc2)cc1 (stereo not drawn) [Example 101, 2-{[4-(2-Butynyloxy)phenyl]sulfinyl}-N-hydroxy-2-(4-ethoxyphenyl) acetamide] |  |  | inhibition at 10 µM (MMP-1): 8%; inhibition at 10 µM (MMP-13): 51%; IC50 [1, 2]: 76 nM
CC#CCOc1ccc(SC(C(=O)NO)c2cccc(Br)c2)cc1 (stereo not drawn) [Example 103, 2-{[4-(2-Butynyloxy)phenyl]sulfanyl}-N-hydroxy-2-(3-bromophenyl) acetamide] |  |  | inhibition at 10 µM (MMP-1): 4%; inhibition at 10 µM (MMP-13): 12%; IC50 [1, 2]: 113 nM

From patent EP1147080B1 (Wyeth Holdings Corporation, priority 1999, dated 2000)
